Residues, ends and D or L forms follow the SMILES beside them.
Assays:
[1] = system: Aspergillus unguis VKM F-1754; format: cell-based; conditions: spores in half-strength potato dextrose broth, peptide 5–300 µM, 48 h, absorbance 595 nm, triplicate, mean ± SD; read-out: IC50 against A. unguis
Procedure: (§1) The inhibitory activity of peptides on spore germination and growth of fungi was tested against nine fungal strains from the VKM: Fusarium culmorum VKM F-2303, F. oxysporum VKM F-137, F. solani VKM F-142, F. verticillioides VKM F-670, Aspergillus unguis VKM F-1754, Bipolaris sorokiniana VKM F-4006, Botrytis cinerea VKM F-4549, Rhizoctonia solani VKM F-895, and Penicillium gladioli VKM F-2088. The fungi were cultivated on potato dextrose agar at 25 °C for 7–8 days, while B. sorokiniana and B. cinerea were grown for 10–12 days. Spores were obtained by washing from the surface of the mycelia with sterile distilled water and filtered through a sterile filter. The filtrate was centrifuged at 6000 rpm for 15 min. The precipitate was washed three times with sterile distilled water and centrifuged at 10,000 rpm for 2 min. A total of 1 mL of sterile aqueous 20% glycerol solution was added to the spores, and spores were stored at −20 °C.
(§2) The antifungal effect of peptides was determined in microtiter plates by measuring the absorbance of the spore suspension in the presence of the peptide relative to the control. In the wells of a plate, 90 µL of spore suspension in half-strength potato dextrose broth at a concentration of 2000–3000 spores in 100 µL was mixed with 10 µL of aqueous solutions of peptides to obtain final concentrations of 5–300 µM. Each experiment was carried out in triplicate. The concentration of spores in the suspension was determined in a Goryaev chamber. The absorbance was recorded at 595 nm on a FilterMax F5 Multi-Mode Microplate Reader (Molecular Devices, San Jose, CA, USA) after 48 h of incubation. The antimicrobial activity was expressed in IC50 values.

[2] = system: Botrytis cinerea VKM F-4549; format: cell-based; conditions: spores in half-strength potato dextrose broth, peptide 5–300 µM, 48 h, absorbance 595 nm, triplicate, mean ± SD; read-out: IC50 against B. cinerea
Procedure: as §1, §2

[3] = system: Penicillium gladioli VKM F-2088; format: cell-based; conditions: spores in half-strength potato dextrose broth, peptide 5–300 µM, 48 h, absorbance 595 nm, triplicate, mean ± SD; read-out: IC50 against P. gladioli
Procedure: as §1, §2

C. tropicalis VKM Y-2771 = format: cell-based, Candida tropicalis; conditions: YPD-P medium, peptide 0.5–300 µM, 30 °C, 24 h, absorbance 594 nm, triplicate, mean ± SD; read-out: IC50 against C. tropicalis
Excerpt: (§3) The IC50 values are presented as mean ± standard deviations.

F. oxysporum VKM F-137 = format: cell-based, Fusarium oxysporum; conditions: spores in half-strength potato dextrose broth, peptide 5–300 µM, 48 h, absorbance 595 nm, triplicate, mean ± SD; for IC50: read-out: IC50 against F. oxysporum
Procedure: as §1, §2

[4] = system: Clavibacter michiganensis subsp. michiganensis VKM Ac-1403; test: Antimicrobial activity assay against bacteria, growth inhibition in microtiter plates; format: cell-based; conditions: modified YPD-P medium, peptide 0.5–300 µM, 30 °C, 24 h, absorbance 594 nm, triplicate, mean ± SD
Excerpt: as §3

[5] = system: Rhizoctonia solani VKM F-895; test: Antifungal activity assay, spore germination and growth; format: cell-based; conditions: spores in half-strength potato dextrose broth, peptide 5–300 µM, 48 h, absorbance 595 nm, triplicate, mean ± SD; read-out: IC50 against R. solani
Procedure: as §1, §2

[6] = system: Bipolaris sorokiniana VKM F-4006; test: as above; format: cell-based; conditions: spores in half-strength potato dextrose broth, peptide 5–300 µM, 48 h, absorbance 595 nm, triplicate, mean ± SD; read-out: IC50 against B. sorokiniana
Procedure: as §1, §2

[7] = system: Fusarium culmorum VKM F-2303; test: as above; format: cell-based; conditions: spores in half-strength potato dextrose broth, peptide 5–300 µM, 48 h, absorbance 595 nm, triplicate, mean ± SD; for IC50: read-out: IC50 against F. culmorum
Procedure: as §1, §2

[8] = system: Cryptococcus neoformans VKM Y-2755; conditions: read-out: IC50 against C. neoformans; YPD-P medium, peptide 0.5–300 µM, 30 °C, 24 h, absorbance 594 nm, triplicate, mean ± SD
[9] = system: F. verticillioides VKM F-670; format: cell-based, Fusarium verticillioides; conditions: spores in half-strength potato dextrose broth, peptide 5–300 µM, 48 h, absorbance 595 nm, triplicate, mean ± SD; for IC50: read-out: IC50 against F. verticillioides
Procedure: as §1, §2

[10] = system: Candida albicans VKM Y-2994; format: cell-based; conditions: YPD-P medium, peptide 0.5–300 µM, 30 °C, 24 h, absorbance 594 nm, triplicate, mean ± SD; read-out: IC50 against C. albicans
Excerpt: as §3

[11] = system: Pseudomonas savastanoi pv. savastanoi VKM B-1546; format: cell-based; conditions: medium without glucose, peptide 0.5–300 µM, 30 °C, 24 h, absorbance 594 nm, triplicate, mean ± SD; for IC50: read-out: IC50 against P. savastanoi
Excerpt: as §3

F. solani VKM F-142 = format: cell-based, Fusarium solani; conditions: spores in half-strength potato dextrose broth, peptide 5–300 µM, 48 h, absorbance 595 nm, triplicate, mean ± SD; for IC50: read-out: IC50 against F. solani
Procedure: as §1, §2

[12] = system: Pectobacterium carotovorum subsp. carotovorum VKM B-1247; test: Antimicrobial activity assay against bacteria, growth inhibition in microtiter plates; format: cell-based; conditions: modified YPD-P medium, peptide 0.5–300 µM, 30 °C, 24 h, absorbance 594 nm, triplicate, mean ± SD
Excerpt: as §3

Row | Structure (SMILES) | IC50 [2] [µM] | IC50 (F. oxysporum VKM F-137) [µM] | IC50 [4] [µM] | IC50 [6] [µM] | IC50 [7] [µM] | IC50 [10] [µM] | IC50 [11] [µM] | IC50 (F. solani VKM F-142) [µM] | IC50 [12] [µM] | other results
1 | CC(C)C[C@H](NC(=O)CN)C(=O)N[C@@H](CS)C(=O)N[C@@H](CCCCN)C(=O)N[C@@H](Cc1ccc(O)cc1)C(=O)N[C@@H](CCCNC(=N)N)C(=O)N[C@@H](CS)C(=O)N[C@@H](CO)C(=O)N[C@@H](CC(C)C)C(=O)N[C@@H](Cc1c[nH]cn1)C(=O)N[C@@H](CO)C(=O)N[C@@H](CCCNC(=N)N)C(=O)N1CCC[C@H]1C(=O)N[C@@H](CC(N)=O)C(=O)N[C@H](C(=O)N[C@@H](CS)C(=O)N[C@@H](Cc1ccccc1)C(=O)N[C@@H](CCCNC(=N)N)C(=O)O)C(C)C [γ89-106SlSN9, reference compound] (H-GLCKYRCSLHSRPNVCFR-OH) | 118 ± 12 | 34.1 ± 1 | 41.9 ± 0.5 | 55.1 ± 7 | 23.1 ± 4.5 | 214 ± 47.1 | 127.6 ± 0.9 | 50.5 ± 1.4 | – | IC50 [1]: 3.3 ± 0.2 µM; IC50 [3]: 93.6 ± 5.2 µM; IC50 (C. tropicalis VKM Y-2771): 6.1 ± 0.1 µM; IC50 [5]: 130 ± 2.9 µM; IC50 [8]: 6.3 ± 3.8 µM; IC50 [9]: 32.3 ± 6.5 µM
2 | CC[C@H](C)[C@H](NC(=O)[C@H](Cc1c[nH]cn1)NC(=O)[C@H](CO)NC(=O)[C@H](CS)NC(=O)[C@H](CCCCN)NC(=O)CN)C(=O)N[C@@H](CC(C)C)C(=O)N[C@@H](CCCNC(=N)N)C(=O)N[C@@H](CCCNC(=N)N)C(=O)N[C@@H](CS)C(=O)N[C@@H](CCC(N)=O)C(=O)N[C@@H](CS)C(=O)N[C@@H](CC(C)C)C(=O)N[C@@H](CCCCN)C(=O)N[C@@H](CO)C(=O)N[C@@H](CS)C(=O)O [γ61-76FuDEFL1-7] (H-GKCSHILRRCQCLKSC-OH; N-terminus and C-terminus assumed) | – | – | – | – | – | – | – | – | > 300 | –
3 | CC[C@H](C)[C@H](NC(=O)[C@H](Cc1c[nH]cn1)NC(=O)[C@H](CO)NC(=O)[C@H](CS)NC(=O)[C@H](CCCCN)NC(=O)CN)C(=O)N[C@@H](CC(C)C)C(=O)N[C@@H](CCCNC(=N)N)C(=O)N[C@@H](CCCNC(=N)N)C(=O)N[C@@H](CS)C(=O)N[C@@H](Cc1ccccc1)C(=O)N[C@@H](CS)C(=O)N[C@H](C(=O)N[C@H](C(=O)N[C@@H](Cc1c[nH]cn1)C(=O)N[C@@H](CS)C(=O)O)[C@@H](C)O)[C@@H](C)O [FuD0] (H-GKCSHILRRCFCTTHC-OH; N-terminus and C-terminus assumed) | – | – | – | – | – | – | – | – | > 300 | –
4 | CC[C@H](C)[C@H](NC(=O)[C@H](Cc1c[nH]cn1)NC(=O)[C@H](CO)NC(=O)[C@H](CS)NC(=O)[C@H](CCCCN)NC(=O)CN)C(=O)N[C@@H](CC(C)C)C(=O)N[C@@H](CCCNC(=N)N)C(=O)N[C@@H](CCCNC(=N)N)C(=O)N[C@@H](CS)C(=O)N[C@@H](CCCNC(=N)N)C(=O)N[C@@H](CS)C(=O)N[C@@H](CO)C(=O)N[C@@H](CCCCN)C(=O)N[C@@H](CO)C(=O)N[C@@H](CS)C(=O)O [γ59-74FuDEFL1-1] (H-GKCSHILRRCRCSKSC-OH; N-terminus and C-terminus assumed) | – | – | – | – | – | – | – | – | > 300 | –
5 | CC(C)C[C@H](NC(=O)[C@H](CCCCN)NC(=O)[C@H](CS)NC(=O)[C@H](CCCNC(=N)N)NC(=O)CN)C(=O)N[C@@H](CO)C(=O)N[C@@H](CO)C(=O)N[C@@H](CCCNC(=N)N)C(=O)N1CCC[C@H]1C(=O)N[C@@H](CCCCN)C(=O)N[C@@H](CC(C)C)C(=O)N[C@@H](CS)C(=O)N[C@@H](CCCCN)C(=O)N[C@@H](CCCNC(=N)N)C(=O)O [γ54-69FuSN5] (H-GRCKLSSRPKLCKR-OH; N-terminus and C-terminus assumed) | > 300 | – | – | > 300 | – | – | – | – | > 300 | IC50 [5]: > 300 µM
6 | CC[C@H](C)[C@H](NC(=O)[C@H](CS)NC(=O)[C@H](C)NC(=O)CN)C(=O)N[C@@H](C)C(=O)N[C@@H](CCCNC(=N)N)C(=O)N[C@@H](CS)C(=O)N[C@@H](CCCNC(=N)N)C(=O)N[C@@H](CC(C)C)C(=O)N[C@@H](CO)C(=O)N[C@@H](CO)C(=O)N[C@@H](CCCNC(=N)N)C(=O)N1CCC[C@H]1C(=O)N[C@@H](CC(N)=O)C(=O)N[C@@H](CC(C)C)C(=O)N[C@@H](CS)C(=O)N[C@@H](CCCCN)C(=O)N[C@@H](CCCNC(=N)N)C(=O)O [γ48-67FuSN6] (H-GACIARCRLSSRPNLCKR-OH; N-terminus and C-terminus assumed) | 154 ± 4.4 | 15.8 ± 0.6 | 34.7 ± 0.5 | 46.2 ± 3.2 | 19.3 ± 1.2 | > 300 | 97.2 ± 0.2 | 51.4 ± 0.9 | > 300 | IC50 [1]: 2.1 µM; IC50 [3]: 93.8 ± 4.2 µM; IC50 (C. tropicalis VKM Y-2771): 1.7 ± 0.6 µM; IC50 [8]: 5.5 ± 0.2 µM; IC50 [9]: 38 ± 4.6 µM
7 | CSCC[C@H](NC(=O)[C@H](CC(=O)O)NC(=O)[C@@H](NC(=O)[C@H](Cc1ccc(O)cc1)NC(=O)[C@H](CS)NC(=O)[C@H](CO)NC(=O)CN)[C@@H](C)O)C(=O)N[C@H](C(=O)N[C@H](C(=O)N[C@@H](Cc1c[nH]cn1)C(=O)NCC(=O)N[C@@H](CC(N)=O)C(=O)N[C@@H](CCCNC(=N)N)C(=O)N[C@@H](CC(C)C)C(=O)N[C@@H](CCCCN)C(=O)N[C@@H](CS)C(=O)N1CCC[C@H]1C(=O)O)[C@@H](C)O)[C@@H](C)O [γ88-104FuSN3] (H-GSCYTDMTTHGNRLKCP-OH; N-terminus and C-terminus assumed) | – | > 300 | > 300 | – | > 300 | > 300 | > 300 | > 300 | > 300 | IC50 against F. oxysporum (F. oxysporum VKM F-137): inactive; IC50 against C. michiganensis [4]: failed to inhibit the growth; IC50 against P. carotovorum [12]: failed to inhibit the growth; IC50 against F. culmorum [7]: inactive; IC50 against F. verticillioides [9]: very low activity; IC50 against P. savastanoi [11]: failed to inhibit the growth; IC50 against F. solani (F. solani VKM F-142): inactive

— article PMC12386561, “Broad-Spectrum Antimicrobial Potential of the γ-Core Motif Peptides of Filipendula ulmaria for Practical Applications in Agriculture and Medicine” (International Journal of Molecular Sciences, 2025)
